Values of other authors in US20250295648A1 (priority 2024, published 2025).

Test system: Parkinson's patients with troublesome L-DOPA-induced dyskinesia
Conditions: cited from earlier work

Fc1ccc(-c2cncc(CNC[C@H]3CCc4ccccc4O3)c2)cc1 [sarizotan]
effect on L-DOPA efficacy (phase 2b study, Goetz 2007): two of the three tested doses significantly reduced L-DOPA efficacy
reduction of LID (third (lowest) dose, two phase 3 trials): ineffective in reducing LID
